Data taken from patent publication US20100256090A1, “Alginic Acid with Low Molecular Weight, Its Salts, Uses, Preparative Methods, Pharmaceutical Compositions and Foods” (priority 2007, published 2010).

How the values were obtained:
hypertension subjects [1] = assay: Clinical Example 1: blood pressure of hypertension subjects after oral granule or enteric capsule; assay type: in vivo, human
Description: This clinical example explains the effects of the low molecular weight alginate salts of the present invention and the effects of the low molecular weight alginate salts of the comparative example in improving hypertension.
Male and female hypertension subjects without other disease were selected, 360 for each sex, aged from 38 to 62 with an average age of 48, whose systolic blood pressure (SBP)(s) were from 155 to 165 mmHg and diastolic blood pressure (DBP)(s) were from 100 to 125 mmHg, said SBP(s) and DBP(s) were measured in resting state. The subjects were randomly grouped, 30 subjects for each group, and orally took granule of low molecular weight potassium alginate or enteric capsule of alginic acid with low molecular weight 1 to 3 times per day with a daily dose of 50 to 200 mg/Kg according to Table 2, and blood pressures before and 24 hours after administration were measured. The granule of low molecular weight potassium alginate was prepared in the following way: potassium alginate was prepared using the alginic acid with low molecular weight according to examples 1 to 10 or comparative example 1, and then the potassium alginate was prepared into granule according to the method of example 11 or comparative example 2. The enteric capsule of alginic acid with low molecular weight was prepared according to the method of example 11 or comparative example 2. Criterion of therapeutical effect made by China Hypertension League was referred to, that is, the systolic blood pressure reduces by more than 15 mmHg and the diastolic blood pressure reduces by more than 10 mmHg 24 hours after the administration.

[2] = system: Male Wister rats feed with high lipid diet; assay: Clinical Example 6: prevention of blood lipid increase in rats on high lipid diet; assay type: in vivo; settings: conclusion from Table 7, one month
Method: This clinical example explains the effects of the low molecular weight alginate salt of the present invention and the effects of the low molecular weight alginate salt of the comparative example in preventing increase of blood lipid when they are added into high lipid diet.
Male Wister rats weighted from 180 to 200 g were randomly divided into 13 groups, 8 for each group, wherein one group was designated as a blank group and feed with normal diet, one group was designated as a control group and feed with a high lipid diet comprising 1 wt % of cholesterol, 0.5 wt % of cholate, 10 wt % of lard oil and 10 wt % of yolk, and the remaining groups were feed with the high lipid diet and were given through stomach the potassium alginate aqueous solution according to the present invention for three times every day such that the daily intake of potassium alginate for each rat reached […]. After one month of feeding, lipoprotein in serum, total cholesterol (TC), triglyeride (TG), high density lipoprotein cholesterol (HDL-C) and low density lipoprotein cholesterol as well as very low density lipoprotein cholesterol [(LDL+VLDL)-C] were measured using enzymatic methods commonly used in the clinic (for example, CHOD-PAP to measure TC and GPO-PAP to measure TG), and the results are shown in Table 7.

hypertension subjects [3] = assay: Clinical Example 7: blood pressure of hypertension subjects taking milk powder with potassium alginate; assay type: in vivo, human; settings: conclusion from Table 8, one month use of milk powder
Method: This clinical example explains the effects of the low molecular weight alginate salt of the present invention and the effects of the low molecular weight alginate salt of the comparative example in reducing hypertension when they are added into milk powder.
Fresh milk containing 8 wt % of solid content was added with potassium alginate until the content of the potassium alginate reached 25 wt % in term of the solid content weight, the milk was then spray dried at 150° C. to obtain a milk powder.
Male and female hypertension subjects without other disease were selected, 48 for each sex, aged from 40 to 65 with an average age of 54, whose SBP(s) were from 145 to 155 mmHg and DBP(s) were from 120 to 125 mmHg, said SBP(s) and DBP(s) were measured in resting state. The subjects were randomly grouped, 8 subjects for each group, and took the milk power after infusing it, wherein the daily dose of potassium alginate reached 10 to 30 mg/Kg and the milk power was taken continuously for one month.

Compound | effective rate (hypertension subjects [1]; effective: SBP reduces by more than 15 mmHg and DBP by more than 10 mmHg 24 hours after administration, oral) | average SBP before administration (hypertension subjects [1]; first number of SBP/DBP, baseline, resting state, hypertension subjects, 30 per group) | average SBP after administration 24 h (hypertension subjects [1]; first number of SBP/DBP, oral, 1 to 3 times per day, daily dose 50 to 200 mg/Kg per Table 2, 24 hours after administration) | average DBP before administration (hypertension subjects [1]; second number of SBP/DBP, baseline, resting state, hypertension subjects, 30 per group) | average DBP after administration 24 h (hypertension subjects [1]; second number of SBP/DBP, oral, 1 to 3 times per day, daily dose 50 to 200 mg/Kg per Table 2, 24 hours after administration) | blood lipid increase preventing effect (in words) [2] | blood pressure reducing effect (in words) (hypertension subjects [3])
NS(=O)(=O)c1cc2c(cc1Cl)NCNS2(=O)=O [Positive Control, Hydrochlorothiazide] | 70.1% | 162 mmHg | 121 mmHg | 118 mmHg | 95 mmHg |  | 
alginic acid with low molecular weight [Comparative Example 1] |  |  |  |  |  | inferior | inferior
